Where two headings read alike, the source gives them in different places.
How the values were obtained:
[1] = biological target: T1, Tyrosinase (EC 1.14.18.1) from mushroom (Agaricus bisporus, UniProt C7FF04); test: Tyrosinase inhibitory assay (L-DOPA oxidation, absorbance at 475 nm); format: biochemical
T1 construct: purchased Sigma Chemical Co. (St. Louis, MO, USA)
Description: Tyrosinase (EC 1.14.18.1) from mushroom (3933 U/mL) and L-dihydroxyphenylalanine (L-DOPA) were obtained from Sigma Chemical Co. (St. Louis, MO, USA). […] Other chemicals were of the highest grade available.
All the samples were first dissolved in DMSO and used for the actual experiment at concentrations of […] (or µM for pure compounds). The tyrosinase inhibitory activity assay was performed as previously described by Arung et al.. The assay mixtures consisting of 1900 µL of test solution in 0.1 M phosphate buffer pH 6.8 and 100 µL of enzyme solution (15 U/mL in 0.1 M phosphate buffer pH 6.8) was prepared immediately before use. After preincubation at room temperature for 30 min, the reaction was initiated by the addition of 1000 µL of substrate solution (1.5 mM L-DOPA in 0.1 M phosphate buffer pH 6.8). The assay mixture was incubated at room temperature for 7 min, and the absorbance at 475 nm was measured with a Shimadzu UV-1800 spectrophotometer. […] Tyrosinase inhibitory activity was expressed as the percentage inhibitory of enzyme tyrosinase in the above assay system, calculated as (1 − B/A) × 100, where A and B are the activities of the enzyme without and with test material. IC50 values were calculated from the mean values of data from four determinations.

[2] = biological target: T2, mushroom tyrosinase (Agaricus bisporus, UniProt C7FF04); test: Inhibition mechanism, Lineweaver–Burk plots; format: biochemical; conditions: 30 °C, pH 6.8
T2 construct: purchased Sigma Chemical Co. (St. Louis, MO, USA)
Description: Fig. 3 Lineweaver–Burk plots for type of inhibition of mushroom tyrosinase (10 U/mL) by artocaepin E (1) for the catalysis of L-DOPA (0.2, 0.3, 0.4, 0.5, and 0.6 mM) at 30 °C, pH 6.8. Concentration of these compounds for curves I0.0, I5.0, I7.0, and I10.0 were 0.0, 5.0, 7.0, and 10.0 μM, respectively. The inset represents the plot of these compounds for determining the inhibition constant (Ki). The line is drawn using a linear lest squares fit
The dependence of absorbance (475 nm) on time was measured, and the reaction rate was calculated for all reactions (uninhibited and inhibited). Then, a Lineweaver–Burk plot was constructed, and Km and Vm values were calculated. Each measurement was performed in duplicate.

[3] = mushroom tyrosinase, substrate L-DOPA, 0.1 M phosphate buffer pH 6.8, room temperature, read-out: Tyrosinase inhibitory activity IC50

T1 sequence (C7FF04 1-392 limits assumed): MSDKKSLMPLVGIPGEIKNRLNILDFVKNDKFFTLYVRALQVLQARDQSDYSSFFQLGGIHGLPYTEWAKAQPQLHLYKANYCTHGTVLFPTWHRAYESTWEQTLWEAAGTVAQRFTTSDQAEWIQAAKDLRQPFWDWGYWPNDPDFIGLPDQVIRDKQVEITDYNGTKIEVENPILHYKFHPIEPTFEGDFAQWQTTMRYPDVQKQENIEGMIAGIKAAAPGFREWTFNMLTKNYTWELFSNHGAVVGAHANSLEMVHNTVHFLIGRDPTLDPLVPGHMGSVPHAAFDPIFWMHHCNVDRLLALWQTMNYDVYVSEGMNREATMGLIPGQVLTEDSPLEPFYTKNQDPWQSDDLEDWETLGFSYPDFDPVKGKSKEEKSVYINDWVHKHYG
T2 sequence (C7FF04 1-392 limits assumed): as above

IC50 [1, 3] [µM] | Compound | also measured
6.7 ± 0.8 | C/C(=C\Cc1c(O)cc2oc(-c3ccc(O)cc3O)cc(=O)c2c1O)COC(=O)/C=C/c1ccc(O)cc1 [Compound 1, artocaepin E] | type of inhibition ([2]; Lineweaver–Burk plots, L-DOPA substrate): competitive inhibition; Ki ([2]; mushroom tyrosinase 10 U/mL, L-DOPA 0.2-0.6 mM, read-out: inhibition constant (Ki)): 6.23 µM
> 50 | C/C(=C\Cc1c(O)ccc2c1O[C@H](c1ccc(O)cc1)CC2=O)CO [Compound 2, artocaepin F] | –
> 50 | O=c1cc(-c2ccc(O)cc2O)oc2cc(O)cc(O)c12 [Compound 3, norartocarpetin] | –
2 ± 0.1 | COc1cc(O)c2c(c1)O[C@H](c1ccc(O)cc1O)CC2=O [Compound 4, artocarpanone] | –
– | O=C1C[C@@H](c2ccc(O)cc2)Oc2cc(O)ccc21 [Compound 5, liquiritigenin] | IC50 [1]: 22 ± 2.5 µM
7.5 ± 0.5 | O=C1CC(c2ccc(O)cc2O)Oc2cc(O)cc(O)c21 (stereo not shown) [Compound 6, steppogenin] | inhibitory activity relative to 4 ([1]; ratio of tyrosinase IC50 values, 6 vs 4): 3.75 fold
> 50 | O=C1c2c(O)cc(O)cc2O[C@H](c2ccc(O)cc2O)[C@H]1O [Compound 7, dihydromorin] | –

Source: PMC4734850, “Tyrosinase inhibitory activity of flavonoids from Artocarpus heterophyllous” (Chemistry Central Journal, 2016)
